Measured values as given in the supplement of paper PMC10307832.

Tests used:
Test in all cases: relative viability (nuclei count vs DMSO), 5 days (fraction); higher = more cells survive
[1] = compound: Cc1ccc2nc(NCCN)c3ncc(C)n3c2c1 + CC(C)C[C@H](NC(=O)[C@H](Cc1ccccc1)NC(=O)c1cnccn1)B(O)O [Bortezomib] (partner 0.002 µM)
In short: (§1)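 After 5 days of treatment, lung cancer cells in 1536-well plates were fixed and stained in a single step (final 0.05% Triton X-100, 1% formaldehyde, 1 ug/ml Hoechst) and their nuclei counted on 4× images. Treatment had been applied by pin tool the day after seeding as one drug alone or as a fixed anchor-drug dose with five library-drug doses (not always all listed) in √10 steps. Relative viability is the nuclei count of treated wells divided by that of vehicle wells, and values are medians of duplicate plates.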

[2] = compound: Cc1ccc2nc(NCCN)c3ncc(C)n3c2c1 + Nc1ncn([C@H]2C[C@H](O)[C@@H](CO)O2)c(=O)n1 [Decitabine] (partner 2 µM)
In short: as §1

[3] = compound: O=C(/C=C/c1ccccc1)NC(NC(=S)Nc1cccc2cccnc12)C(Cl)(Cl)Cl [Salubrinal] + CCNC(=O)c1noc(-c2cc(C(C)C)c(O)cc2O)c1-c1ccc(CN2CCOCC2)cc1 [Luminespib] (partner 0.01 µM)
In short: as §1

[4] = compound: O=C(/C=C/c1ccccc1)NC(NC(=S)Nc1cccc2cccnc12)C(Cl)(Cl)Cl [Salubrinal] + Cc1nc(Nc2ncc(C(=O)Nc3c(C)cccc3Cl)s2)cc(N2CCN(CCO)CC2)n1 [Dasatinib] (partner 0.075 µM)
In short: as §1

Cell Line: HCC-44
- relative viability ([1]; first compound 0.04 µM): 0.93
- relative viability ([1]; first compound 0.1265 µM): 0.897
- relative viability ([1]; first compound 0.4 µM): 0.806
- relative viability ([1]; first compound 1.265 µM): 0.882
- relative viability ([1]; first compound 4 µM): 0.922
- relative viability ([2]; first compound 0.04 µM): 0.981
- relative viability ([2]; first compound 0.1265 µM): 0.946
- relative viability ([2]; first compound 0.4 µM): 0.923
- relative viability ([2]; first compound 1.265 µM): 0.94
- relative viability ([2]; first compound 4 µM): 1
- relative viability ([3]; first compound 0.08 µM): 1.32
- relative viability ([3]; first compound 0.253 µM): 1.08
- relative viability ([3]; first compound 0.8 µM): 1.09
- relative viability ([3]; first compound 2.53 µM): 1.02
- relative viability ([3]; first compound 8 µM): 0.894

Cell Line: HCC-78
- relative viability ([4]; first compound 0.08 µM): 0.404
- relative viability ([4]; first compound 0.253 µM): 0.343
- relative viability ([4]; first compound 0.8 µM): 0.688
- relative viability ([4]; first compound 2.53 µM): 0.361
- relative viability ([4]; first compound 8 µM): 0.363
- relative viability ([1]; first compound 0.04 µM): 0.52
- relative viability ([1]; first compound 0.1265 µM): 0.424
- relative viability ([1]; first compound 0.4 µM): 0.365
- relative viability ([1]; first compound 4 µM): 0.444
- relative viability ([2]; first compound 0.04 µM): 0.745
- relative viability ([2]; first compound 0.1265 µM): 0.711
- relative viability ([2]; first compound 0.4 µM): 0.735
- relative viability ([2]; first compound 1.265 µM): 0.664
- relative viability ([2]; first compound 4 µM): 0.617

Cell Line: HCC-366
- relative viability ([4]; first compound 0.08 µM): 0.813
- relative viability ([4]; first compound 0.253 µM): 0.497
- relative viability ([4]; first compound 0.8 µM): 0.777
- relative viability ([4]; first compound 2.53 µM): 0.555
- relative viability ([4]; first compound 8 µM): 0.528
- relative viability ([1]; first compound 0.04 µM): 1.06
- relative viability ([1]; first compound 0.1265 µM): 0.948
- relative viability ([1]; first compound 0.4 µM): 1.13
- relative viability ([1]; first compound 1.265 µM): 1.11
- relative viability ([1]; first compound 4 µM): 0.967
- relative viability ([2]; first compound 0.04 µM): 0.349
- relative viability ([2]; first compound 0.1265 µM): 0.362
- relative viability ([2]; first compound 0.4 µM): 0.302
- relative viability ([2]; first compound 1.265 µM): 0.357
- relative viability ([2]; first compound 4 µM): 0.34

Cell Line: IA-LM
- relative viability ([1]; first compound 0.04 µM): 0.895
- relative viability ([1]; first compound 0.1265 µM): 0.94
- relative viability ([1]; first compound 0.4 µM): 0.844
- relative viability ([1]; first compound 1.265 µM): 0.696
- relative viability ([1]; first compound 4 µM): 0.66

Cell Line: LK-2
- relative viability ([4]; first compound 0.08 µM): 0.378
- relative viability ([4]; first compound 0.253 µM): 0.302
- relative viability ([4]; first compound 0.8 µM): 0.296
- relative viability ([4]; first compound 2.53 µM): 0.312
- relative viability ([4]; first compound 8 µM): 0.342
- relative viability ([2]; first compound 0.04 µM): 0.289
- relative viability ([2]; first compound 0.1265 µM): 0.393
- relative viability ([2]; first compound 0.4 µM): 0.337
- relative viability ([2]; first compound 1.265 µM): 0.311
- relative viability ([2]; first compound 4 µM): 0.297
- relative viability ([3]; first compound 0.08 µM): 0.219
- relative viability ([3]; first compound 0.253 µM): 0.183
- relative viability ([3]; first compound 0.8 µM): 0.214
- relative viability ([3]; first compound 2.53 µM): 0.211
- relative viability ([3]; first compound 8 µM): 0.166

Cell Line: NCI-H358
- relative viability ([4]; first compound 0.08 µM): 0.173
- relative viability ([4]; first compound 0.253 µM): 0.23
- relative viability ([4]; first compound 0.8 µM): 0.154
- relative viability ([4]; first compound 2.53 µM): 0.149
- relative viability ([4]; first compound 8 µM): 0.145
- relative viability ([2]; first compound 0.04 µM): 0.225
- relative viability ([2]; first compound 0.1265 µM): 0.216
- relative viability ([2]; first compound 0.4 µM): 0.239
- relative viability ([2]; first compound 1.265 µM): 0.257
- relative viability ([2]; first compound 4 µM): 0.206
- relative viability ([3]; first compound 0.08 µM): 0.277
- relative viability ([3]; first compound 0.8 µM): 0.553
- relative viability ([3]; first compound 2.53 µM): 0.478
- relative viability ([3]; first compound 8 µM): 0.38

Cell Line: NCI-H522
- relative viability ([4]; first compound 0.08 µM): 0.988
- relative viability ([4]; first compound 0.253 µM): 0.976
- relative viability ([4]; first compound 0.8 µM): 0.981
- relative viability ([4]; first compound 2.53 µM): 0.869
- relative viability ([4]; first compound 8 µM): 0.972
- relative viability ([2]; first compound 0.04 µM): 0.573
- relative viability ([2]; first compound 0.1265 µM): 0.795
- relative viability ([2]; first compound 0.4 µM): 0.765
- relative viability ([2]; first compound 1.265 µM): 0.62
- relative viability ([2]; first compound 4 µM): 0.675
- relative viability ([3]; first compound 0.08 µM): 1.13
- relative viability ([3]; first compound 0.253 µM): 0.97
- relative viability ([3]; first compound 0.8 µM): 1.13
- relative viability ([3]; first compound 2.53 µM): 1.12
- relative viability ([3]; first compound 8 µM): 1.11

Cell Line: NCI-H1299
- relative viability ([1]; first compound 0.04 µM): 1
- relative viability ([1]; first compound 0.1265 µM): 0.993
- relative viability ([1]; first compound 0.4 µM): 1.01
- relative viability ([1]; first compound 1.265 µM): 1.05
- relative viability ([1]; first compound 4 µM): 0.972

Cell Line: NCI-H1395
- relative viability ([4]; first compound 0.08 µM): 0.409
- relative viability ([4]; first compound 0.253 µM): 0.443
- relative viability ([4]; first compound 0.8 µM): 0.472
- relative viability ([4]; first compound 2.53 µM): 0.4
- relative viability ([4]; first compound 8 µM): 0.392
- relative viability ([2]; first compound 0.04 µM): 0.616
- relative viability ([2]; first compound 0.1265 µM): 0.708
- relative viability ([2]; first compound 0.4 µM): 0.713
- relative viability ([2]; first compound 1.265 µM): 0.669
- relative viability ([2]; first compound 4 µM): 0.607
- relative viability ([3]; first compound 0.08 µM): 0.761
- relative viability ([3]; first compound 0.253 µM): 0.701
- relative viability ([3]; first compound 0.8 µM): 0.774
- relative viability ([3]; first compound 2.53 µM): 0.729
- relative viability ([3]; first compound 8 µM): 0.644

Cell Line: NCI-H1563
- relative viability ([4]; first compound 0.08 µM): 0.446
- relative viability ([4]; first compound 0.253 µM): 0.514
- relative viability ([4]; first compound 0.8 µM): 0.555
- relative viability ([4]; first compound 2.53 µM): 0.453
- relative viability ([4]; first compound 8 µM): 0.502
- relative viability ([1]; first compound 0.04 µM): 0.859
- relative viability ([1]; first compound 0.1265 µM): 0.757
- relative viability ([1]; first compound 0.4 µM): 0.875
- relative viability ([1]; first compound 1.265 µM): 0.968
- relative viability ([1]; first compound 4 µM): 1.05
- relative viability ([3]; first compound 0.08 µM): 0.572
- relative viability ([3]; first compound 0.253 µM): 0.501
- relative viability ([3]; first compound 0.8 µM): 0.521
- relative viability ([3]; first compound 2.53 µM): 0.488
- relative viability ([3]; first compound 8 µM): 0.506
